Assay results published in patent US11419955B2, “Multimodal silica-based nanoparticles” (Sloan-Kettering Institute for Cancer Research, priority 2009, dated 2022).

Key:
FAK pathway = experiment: Western blot of FAK pathway signaling in M21 cells; type: cell-based, human; details: M21 cells exposed to 100 nM cRGDY-PEG-C dots
Method: To determine whether […] integrin-binding cRGDY-PEG-C-dots modulates the activity of these pathways, we treated serum-deprived (0.2% FCS) M21 cells with 100 nM of cRGDY-PEG-C-dots for 2 hrs at 37° C.; serum-deprived cells treated with 0.2% FCS alone served as controls. […] These findings, depicted graphically as normalized intensity ratios, have been expressed relative to their respective total protein levels, and normalized to corresponding values measured under control conditions (FIG. 40C).
M21 cells (1×10^6 cells/six wells plate) were grown in six wells coated with collagen (10 mg/ml), and made quiescent by growing under serum-deprived conditions. The medium was then changed to 0.2% FCS, and different concentrations (25-400 nM) of cRGDY-PEG-C-dots were added (37° C., 0.5-8 hours). […] Protein concentrations were determined by the bicinchoninic acid assay (BCA, Thermo Scientific, Rockford, Ill.). […]
In order to quantify the differences in the size and intensity between Western blot bands, we performed densitometry of phosphorylated and total protein intermediates using Photoshop CS2 (Adobe, San Jose, Calif.). […]

HUVEC cells = experiment: Migration assay, HUVEC cells; type: cell-based, human; details: 400 nM particles, 24 hour, before and after addition of inhibitor
Method: M21 cells: M21 cells were seeded (6×10^4 cells/well) using a migration kit (Oris™ Collagen I coated plate, […] TEC). Twenty-four hours after seeding the cells, stoppers in the plate were removed. Fresh culture media (100 μl) supplemented with 0.2% FBS was introduced and cRGDY-PEG-C-dots were added at several concentrations: 25, 100 and 400 nM. Every 24 hours thereafter, media was replaced, along with new particles, over a 72 hr time interval. Prior to incubating the plate at 37° C. overnight, time zero images were captured by the Axiovert 200M microscope (Carl Zeiss) using a 5× (0.15 NA) objective and using a scan slide module in the Metamorph software (molecular devices, PA). Serial microscopy was then performed and images captured every 24 hrs for a total of 96 hours post-incubation. The data were analyzed by using ImageJ software. […]
Phase contrast images captured for migration studies were analyzed using ImageJ 1.45s (National Institutes of Health, rsbweb.nih.gov/ij/) in order to quantify the extent of cell migration (i.e., area closure) for M21 cells and HUVECs. […] The enclosed area for each image was measured (pixels) and used to calculate percent closure relative to time zero (following particle addition and media replacement) as follows: difference in area at a given time point (24, 48, 72 or 96 hr) and at time zero divided by the same area at time zero multiplied by 100. […]

[1] = tested on: melanoma nodal metastases; design: species or system Sinclair miniature swine; details: in vivo
Method: Spontaneous melanoma Sinclair miniature swine (10-12 kg, Sinclair Research Center, MO) were injected intravenously with 5 mCi ^18F-fluoro-deoxyglucose (^18F-FDG) for whole-body screening of nodal and/or organ metastases. Miniswine underwent 1-hr dynamic ^18F-FDG PET whole body PET scan using a clinical PET scanner 40 minutes after injection to screen for metastatic disease, followed by CT scan acquisition for anatomic localization. […]
Miniswine were taken to the operating room for identification of nodes. Optical fluorescence imaging was performed using large field-of-view near infrared fluorescence camera system, smaller field-of-view modified endoscope, and a modified stereomacroscope for obtaining higher resolution fluorescence images within the exposed surgical bed. […]
The primary melanoma skin lesion was excised, and an incision made to allow access to the sentinel node(s). […] Specimens were sent for histological assessment for metastases and optical confocal microscopy to confirm the presence of both malignancy and nanoparticle fluorescence.
Following harvest of the sentinel nodes, the entire lymph node basin was excised and further evaluated using histological methods (with immunohistochemical markers for melanoma as needed), fluorescence microscopy, and the hand-held PET probe for correlative purposes. […]

[2] = Montet et al. 2006; cited from earlier work

## CS(=O)(=O)c1cccc(CNc2nc(Nc3ccc4c(c3)CCC(=O)N4)ncc2C(F)(F)F)c1 [PF-573228]
FAK pathway; 250, 500 nM inhibitor
  Inhibition of MEK or Erk phosphorylation: observed only at the higher inhibitor concentration
FAK pathway; two inhibitor concentrations (250, 500 nM)
  phosphorylation of FAK on Tyr397 and Src: inhibition of the phosphorylation of FAK on Tyr^397 and Src
HUVEC cells
  Percentage change in mean areas of closure relative to controls: +3%

## ^18F-fluorodeoxyglucose [^18F-FDG]
[1]
  discrimination of metastatic disease from inflammation: failed to detect metastatic disease, while identifying inflammatory and other metabolically active sites

## cRGD
[2]
  published blood T1/2 / blood residence half-time: about 13 minutes
